The results in this text go back to US9499478B2, “Substituted cyclopentanes for inducing hair growth” (Allergan, Inc., priority 2011, dated 2016).

In series [1] the test system is mouse model of hair regrowth. Nature of the series: Piliation studies (mouse model of hair regrowth). The series is classed as in vivo, mice. How it is done:
Experimental Design. C57Black/6J, 7-week old female mice (n=10) were employed in piliation studies. Dorsal hair was shaved (area ˜2 cm×4 cm). Dosing of active agent was once per day (QD) by topical administration for 14 days. Observations were conducted for 42-days to determine onset of new hair growth and day of hair growth completion. Compounds were formulated as either a) 50% propylene glycol, 30% ethanol, 20% water, or b) the formulation of Formulation A described above. The experiments reported for FIGS. 4A-4B, 5A-5B, 6A-6B, 8A-8B, and 9A-9B were conducted using a vehicle with formulation of 50% propylene glycol, 30% ethanol, 20% water. The experiments reported for FIGS. 7A-7B were conducted using a vehicle of Formulation A described above.
Results. For each of FIGS. 4A, 5A, 6A, 7A, 8A and 9A, the histograms depict the day of onset of hair growth. For each of FIGS. 4B, 5B, 6B, 7B, 8B and 9B, the histograms depict the day achieving full hair growth.

The nature of series [2]: Pharmacokinetic assessment of mouse hair regrowth model (blood and skin). The format is in vivo, mice. Particulars: 0.03% dermal daily, all measured time points, LC/MS-MS. The method, then:
Experimental Design. Female C57BL/6J mice (n=2) were assayed per time point per treatment group. Treatment groups: (1) vehicle; (2) 0.03% Cmpd IVa; (3) 0.03% Cmpd IIIb; (4) 0.03% Cmpd IVb; (5) 0.03% bimatoprost. Treatment dosing: dermal daily application of ˜60 uL test compound solution. Blood and skin pharmacokinetic time points were obtained at day 1 (1, 4, 8 and 24-hrs post-dose); day 2 (24-hrs post-dose); day 14 (24-hrs post-dose); and day 42 (28 days post day 14 dose). Bioanalysis employed LC/MS-MS.

Series [3] concerns mouse skin. The experiment in a line: Pathology assessment of mouse hair regrowth model. The format is in vivo, mice. Conditions: histology, 0.03%; vehicle control still in growth phase. From the text: Experimental Design. Histological samples from test subjects employed in the studies described in Example 12 were obtained for pathology assessment.
A short description of series [4]: Dermal tolerability in rats. The format is in vivo. Particulars: female rats, 3 mg/kg/day daily for 8 days; for change in food consumption or body weight gain (in words): IVb decreases not statistically significant. How it is done:
Experimental Design. Female rats were administered either vehicle or one of Cmpds IVa, IIIb, or IVb daily for 8 days. The administered dose was 3 mg/kg/day, at a concentration of 3 mg/mL. Observed data were body weight, viability, food consumption, and dermal observation (skin reaction grading), as known in the art. The vehicle was Formulation A. See Table 1 above.

A short description of series [5]: microAmes mutagenesis screen. The format is cell-based. Conditions: with or without metabolic activation. An excerpt:
Experimental Design. Cmpds IVa, IIIb, and IVb were subjected to the microAmes screen, as known in the art.

A short description of series [6]: MALDI-MS imaging of compound distribution in mouse skin. The format is in vivo. The method, then:
Rationale. In order to determine the penetration, accumulation and/or differential distribution of bimatoprost and compounds disclosed herein upon dermal administration, MALDI-MS (matrix assisted laser desorption ionization mass spectroscopy) imaging was conducted on explanted samples of mouse skin after topical dermal administration.
Experimental Design. MALDI-MS imaging was conducted on mouse skin strips after administration of bimatoprost or compound disclosed herein once daily for 3 days. Samples of mouse skin were recovered 4 hr after day-3 dosing of compound. Dermal administration was conducted with vehicle, 0.03% bimatoprost, 3% bimatoprost, 0.03% Cmpd IVa, and 3% Cmpd IVa.
FIG. 16A depicts a typical explanted sample of mouse skin for these studies, wherein Cmpd IVa was applied via dermal administration. FIG. 16B depicts the result of MALDI-MS imaging. The intensity of each pixel within FIG. 16B reflects the concentration of Cmpd IVa at the corresponding point in the image depicted in FIG. 16A. FIG. 16C depicts a representative mass spectrum, corresponding to the region of FIG. 16B indicated by the white circle within FIG. 16B. Accordingly, each pixel of the image of FIG. 16B has an associated mass spectrum, providing the amounts of bimatoprost or other administered compound or metabolite thereof.

A short description of series [7]: In vitro human skin penetration, Franz diffusion chamber. The series is classed as in vitro ADME. Conditions: for conversion to bimatoprost in the receptor chamber solution / Percentage Dose Applied, Receptor Chamber Solution, Prodrug / Percentage Dose Applied, Upper ⅓ Dermis, Prodrug: 0.03% in Formulation A; for Percentage Dose Applied, Receptor Chamber Solution, Prodrug / Percentage Dose Applied, Upper ⅓ Dermis, Prodrug: applied agent; for Percentage Dose Applied, Upper ⅓ Dermis, Prodrug: dermis at 48 hrs; for conversion to bimatoprost in skin layers: SC/Epi/Dermis layers. From the text:
Experimental Design. Test material: Dermatomed ex vivo human cadaver posterior trunk skin on 1.0 cm^2 Franz diffusion chamber as known in the art. Test size: 3 skin donors (obtained from New York Firefighters Skin Bank), 3 replicates per donor per formulation. Test formulations: 0.03% active agent (Cmpd IVa, Cmpd IIIb, Cmpd IVb) in Formulation A; control formulation: bimatoprost at 0.03% in Formulation A. Dosing regimen: receptor fluid at 2, 4, 24, and 48 hrs; SC/epidermis and dermis at 48 hrs. Sample analysis: LC/MS-MS to detect bimatoprost and Cmpds IVa, IIIb and IVb.

Regarding `CCNC(=O)CCC/C=C\C[C@@H]1[C@@H](/C=C/[C@H](CCc2ccccc2)OC(C)=O)[C@H](O)C[C@@H]1O` [Cmpd IVa, 15-acetyl-bimatoprost], in series [1] (0.03% Cmpd IVa), the “effectiveness of 0.03% compound compared to 0.1% to 0.3% bimatoprost” value was “approximately equally effective”. Further, the “pharmacological efficacy relative to bimatoprost” value in series [1] (vehicle 50% propylene glycol, 30% ethanol, 20% water) is reported as “greater than bimatoprost”. Further, the “pharmacological efficacy relative to bimatoprost” value in series [1] (vehicle Formulation A) is “greater than bimatoprost”. Also, in series [2], the “level in the systemic circulation” value is recorded as “most undetectable”. The “hair cycle phase at day-42” value in series [3] is on record as “returned to the resting phase”. In series [4], the “Body Weight Gain, Mean ± SD” value stood at 9.0 ± 3.0 g; the “Food Consumption, Mean ± SD” value stood at 21.14 ± 1.08 g; the “change in food consumption or body weight gain (in words)” value (“change” for short) is “no significant change”. Besides, the mutagenicity entry in series [5] is recorded as “not mutagenic”. Also, the “skin penetration of compound compared with bimatoprost” value in series [6] (3.0% topical dermal administration each) is “similar”. Besides, in series [6] (after topical dermal administration at 0.03%), the “detectability of compound in mouse skin by MALDI-MS imaging” value was “detectable”. In series [7], the “conversion to bimatoprost in the receptor chamber solution” value is on record as “observed to convert to bimatoprost”; the “Percentage Dose Applied, Receptor Chamber Solution, Prodrug” value is given as 4.3%; the “Percentage Dose Applied, Upper ⅓ Dermis, Prodrug” value came out at 3.8%; the “conversion to bimatoprost in skin layers” value is recorded as “converted to bimatoprost”.

With `CCNC(=O)CCC/C=C\C[C@@H]1[C@@H](/C=C/[C@H](CCc2ccccc2)OC(=O)CC)[C@H](O)C[C@@H]1O` [Cmpd IVb, 15-propionyl-bimatoprost], in series [1] (among compounds tested), the “activity in the time required to regain full hair growth” value is on record as “best activity”. In series [1] (vehicle Formulation A), the “pharmacological efficacy relative to bimatoprost” value was “approximately equivalent efficacy”. For the same compound, the “level in the systemic circulation” value in series [2] is reported as “most undetectable”. In addition, the “hair cycle phase at day-42” value in series [3] is on record as “returned to the resting phase”. Moreover, in series [4], the “Body Weight Gain, Mean ± SD” value turned out to be 0.3 ± 6.7 g; the “Food Consumption, Mean ± SD” value turned out to be 19.19 ± 1.32 g; the “change” value is “decreases in both food consumption and body weight gain”. In series [5], the mutagenicity entry is reported as “not mutagenic”. For the same compound, in series [7], the “conversion to bimatoprost in the receptor chamber solution” value was “observed to convert to bimatoprost”; the “Percentage Dose Applied, Receptor Chamber Solution, Prodrug” value was 2.1%; the “Percentage Dose Applied, Upper ⅓ Dermis, Prodrug” value is 1.9%; the “conversion to bimatoprost in skin layers” value is reported as “converted to bimatoprost”.

In the case of `CCNC(=O)CCC/C=C\C[C@@H]1[C@@H](/C=C/[C@@H](O)CCc2ccccc2)[C@H](OC(=O)CC)C[C@@H]1O` [Cmpd IIIb, 11-propionyl bimatoprost], the “pharmacological efficacy relative to bimatoprost” value in series [1] (vehicle Formulation A) is reported as “approximately equivalent efficacy”. In series [2], the “level in the systemic circulation” value is on record as “most undetectable”. In series [3], the “hair cycle phase at day-42” value is reported as “returned to the resting phase”. In series [4], the “Body Weight Gain, Mean ± SD” value amounted to 10.0 ± 6.1 g; the “Food Consumption, Mean ± SD” value is 22.8 ± 1.36 g; the “change” value is listed as “no significant change”. In series [5], the mutagenicity result is recorded as “not mutagenic”. In series [7], the “conversion to bimatoprost in the receptor chamber solution” value was “observed to convert to bimatoprost”; the “Percentage Dose Applied, Receptor Chamber Solution, Prodrug” value was 0.8%; the “Percentage Dose Applied, Upper ⅓ Dermis, Prodrug” value was 2.1%; the “conversion to bimatoprost in skin layers” value is on record as “converted to bimatoprost”.

For the compound `CCNC(=O)CCC/C=C\C[C@@H]1[C@@H](/C=C/[C@@H](O)CCc2ccccc2)[C@H](O)C[C@@H]1O` [bimatoprost, (Z)-7-((1R,2R,3R,5S)-3,5-dihydroxy-2-((S,E)-3-hydroxy-5-phenylpent-1-enyl)cyclopentyl)-N-ethylhept-5-enamide, reference compound], the “level in the systemic circulation” value in series [2] is “most undetectable”. Further, the “hair cycle phase at day-42” value in series [3] was “returned to the resting phase”. Moreover, in series [7], the “Percentage Dose Applied, Receptor Chamber Solution, Prodrug” value turned out to be 1.1% and the “Percentage Dose Applied, Upper ⅓ Dermis, Prodrug” value was 7.0%.
